We go through six molecules from US20220144853A1, “IMIDAZOLINE DERIVATIVES AS CXCR4 MODULATORS” (Université de Paris, priority 2019, published 2022).

Where a name gives a salt, the structure may show the parent alone.

For series [1], the system named is IL-1β, IFN-γ, TNF-α, IL-10, IL-12p70, IL-18 and IL-23. Nature of the series: Cytokine production by R848-activated PBMCs, LEGENDplex: statements on all inhibited cytokines together. In kind it is cell-based. The conditions noted are these: Homo sapiens, PBMC, PBMCs from two healthy donors, read-out: IC50 on the expression of cytokines, on all such cytokines. The protocol: (§1) 2) The PBMCs used herein were prepared as described in part A “immune cells preparation”, section 2) above. PBMCs were seeded at 4.10^6/mL. […] Cells were then stimulated with the TLR7/8 agonist resiquimod—R848 (Sigma-Aldrich, MO, USA) at 5 μg/mL.
(§2) Cytokine expression levels were assessed using LEGENDplex Human inflammation panel 1 Kit (BioLegend, California, USA), which is a bead-based multiplex assay, using fluorescence-encoded beads. […] First, supernatants of R848-stimulated PBMCs were harvested after 24 h of stimulation and frozen at −20° C. for storage. Supernatants were dispensed into a 96-well V-bottom plate. Protocol pursued as per manufacturer recommendations (Manual for BioLegend LEGENDplex, Multi-Analyte Flow Assay Kit, Human Inflammation Panel 1, version 750000393_R01).

The next series has as its system TNF-α. Nature of the series: Cytokine production by R848-activated PBMCs, LEGENDplex Human Inflammation panel 1: TNF-α. The following applies: Homo sapiens, PBMC, PBMCs from 2 healthy donors, R848 overnight. Type of series: cell-based. The method, then:
as §1, §2

In a further series the test system is IL-18. Description: Cytokine production by R848-activated PBMCs, LEGENDplex Human Inflammation panel 1: IL-18. In kind it is cell-based. The following applies: Homo sapiens, PBMC, PBMCs from 2 healthy donors, R848 overnight. The protocol:
as §1, §2

In a further series the test system is IL-1β. Description: Cytokine production by R848-activated PBMCs, LEGENDplex Human Inflammation panel 1: IL-1β. Type of series: cell-based. The following applies: Homo sapiens, PBMC, PBMCs from 2 healthy donors, R848 overnight, read-out: IC50 (μM) 1L-1β. The method, then:
as §1, §2

Another series deals with IFN-γ. Description: Cytokine production by R848-activated PBMCs, LEGENDplex Human Inflammation panel 1: IFN-γ. In kind it is cell-based. The following applies: Homo sapiens, PBMC, PBMCs from 2 healthy donors, R848 overnight. The method, then:
as §1, §2

A further series concerns IL-12p70. Nature of the series: Cytokine production by R848-activated PBMCs, LEGENDplex Human Inflammation panel 1: IL-12p70. The following applies: Homo sapiens, PBMC, PBMCs from 2 healthy donors, R848 overnight. Type of series: cell-based. The protocol: as §1, §2
In a further series the test system is IL-10. Description: Cytokine production by R848-activated PBMCs, LEGENDplex Human Inflammation panel 1: IL-10. The following applies: Homo sapiens, PBMC, PBMCs from 2 healthy donors, R848 overnight. Type of series: cell-based. The protocol: as §1, §2
For a further series, the system named is IL-23. Nature of the series: Cytokine production by R848-activated PBMCs, LEGENDplex Human Inflammation panel 1: IL-23. Type of series: cell-based. The conditions noted are these: Homo sapiens, PBMC, PBMCs from 2 healthy donors, R848 overnight. The protocol: as §1, §2
Series [2] relates to IFN production by activated PBMCs. Description: IFN production by R848-activated PBMCs from healthy donors, twINNE reporter cell line. Type of series: cell-based, human. The conditions noted are these: Homo sapiens, PBMC, means of two results over 2 healthy donors, R848 5 μg/mL, IT1t: mean over all experiments, read-out: IC50 of anti-inflammatory activity (IFN production). The method in brief: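 Human PBMCs (4.10^6/mL, RPMI/10% FBS, 37° C) stimulated with R848 at 5 μg/mL; supernatants collected after 24 h. Functional IFN measured on twINNE cells (ISRE-driven luciferase reporter) after 24 h culture by bioluminescence; IC50 from variable-slope dose-response fits.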

Take `CC1(C)CN=C(SCC2=CSC3=N[C@H]4CCCC[C@@H]4N23)N1` (racemic) [Example 7, trans-3-(((4,4-dimethyl-4,5-dihydro-1H-imidazol-2-yl)thio)methyl)-4a,5,6,7,8,8a-hexahydrobenzo[4,5]imidazo[2,1-b]thiazole dihydrochloride]: the IC50 was at most 20 µM in [1]; 20 µM in the series on TNF-α; 4.2 µM with IL-18; 9.9 µM with IL-1β; 9.8 µM in the series on IFN-γ; 6.7 µM in the series on IL-12p70. Further, the figures for the IC50 (with IL-10; with IL-23; in series [2]) were 5.6 µM, 2.9 µM and at most 10 µM, respectively.

As to `CN1CCN=C1SCC1=CSC2=NC3CCCCC3N12` (racemic) [Example 63, trans-3-(((1-methyl-4,5-dihydro-1H-imidazol-2-yl)thio)methyl)-4a,5,6,7,8,8a-hexahydrobenzo[4,5]imidazo[2,1-b]thiazole dihydrochloride], the IC50 is 1.3 µM in the series on IL-18; 2.8 µM in the series on IL-1β; 2.7 µM in the series with IFN-γ; 1.2 µM with IL-12p70; 0.69 µM in the series on IL-23; at most 10 µM in series [2].

With `CC1(C)CN2C(CSC3=N[C@@H]4CCCC[C@H]4N3)=CSC2=N1` [Example 3, 3-((((3aR,7aR)-3a,4,5,6,7a-hexahydro-1H-benzo[d]imidazol-2-yl)thio)methyl)-6,6-dimethyl-5,6-dihydroimidazo[2,1-b]thiazole dihydrochloride], the IC50 in series [1] is at most 20 µM; in the series on TNF-α, 11 µM; in the series with IL-18, 6.9 µM; in the series with IL-1β it was 12 µM; in the series with IFN-γ it was 7.2 µM; with IL-12p70, 2.6 µM. Moreover, the IC50 with IL-10 was 11 µM; in the series with IL-23 it was 1.7 µM; in [2], at most 10 µM.

Take `CC1(C)CN2C(CSC3=NCC(Cc4ccccc4)N3)=CSC2=N1` (centres unmarked) [Example 17, 3-(((5-benzyl-4,5-dihydro-1H-imidazol-2-yl)thio)methyl)-6,6-dimethyl-5,6-dihydroimidazo[2,1-b]thiazole dihydrochloride]: the IC50 in series [1] was at most 20 µM; in the series with TNF-α, 4.6 µM; with IL-18 it was 0.54 µM; with IL-1β it was 3.6 µM; with IFN-γ, 3.2 µM; in the series on IL-12p70, 0.34 µM. Also, the IC50 is 2.7 µM in the series on IL-10, 2.2 µM with IL-23 and at most 10 µM in series [2].

For the molecule `CC1(C)CN=C(SCC2=CSC3=NC(Cc4ccccc4)CN23)N1` (centres unmarked) [Example 18, 6-benzyl-3-(((5,5-dimethyl-4,5-dihydro-1H-imidazol-2-yl)thio)methyl)-5,6-dihydroimidazo[2,1-b]thiazole dihydrochloride], the IC50 in series [1] is at most 20 µM; in the series on TNF-α it was 7.9 µM; with IL-18, 0.2 µM; with IL-1β, 5.6 µM; in the series with IFN-γ, 6.1 µM; with IL-12p70 it was 3.6 µM. The results for the IC50 (in the series with IL-10; in the series with IL-23; in series [2]) were 3.7 µM, 2.9 µM and 10 to 31 µM, respectively.

The molecule `CC1(C)CN2C(CCCSC3=NCC(C)(C)N3)=CSC2=N1.Cl.Cl` [Example 64, 3-(3-((5,5-dimethyl-4,5-dihydro-1H-imidazol-2-yl)thio)propyl)-6,6-dimethyl-5,6-dihydroimidazo[2,1-b]thiazole dihydrochloride] yielded a melting point of 85 to 95 °C. Also, the IC50 in [2] was at least 31 µM.

A word on the IC50: it is the concentration needed to halve the response being measured. What is called melting point is the temperature, or range, at which the solid turns liquid.
